Values of other authors, collected in US20060233841A1, “Implantable gel compositions and method of manufacture” (priority 1999, published 2006).

Details: reported value; solubility values considered to be determined at 20° C.

solubility in water: 7.17 grams in 100 ml of water
SMILES: CC(=O)OCC(COC(C)=O)OC(C)=O [triacetin]
